Data as given in US20200148682A1, “AKT ISOZYME-SPECIFIC COVALENT INHIBITORS DERIVED FROM REDOX-SIGNALING LIPIDS” (Cornell University, priority 2017, published 2020).
Entries after “also recorded” stand apart in the source; their conditions may differ. Each block holds one compound with its values, some of them ahead of it.

Tests used:
Type in all cases: cell-based
Halo-Akt3 = biological target: T1, Halo-Akt3 (Homo sapiens, UniProt Q9Y243); assay: In-gel fluorescence assay (Cy5-azide click) of covalent labeling in transfected HEK293T cells; details: 5 μM, 48 hours
T1 construct: expressed in transfected cells; host or cells: HEK293T
Experimental: HEK293T cells were transfected with Halo-Akt3 for 20 hours, then treated with the stated compound (5 μM, 48 hours). After this time, cells were lysed and the labeling was assayed by click chemistry. […] FIGS. 19A, 19C top gels are images showing in gel fluorescence, Cy5 channel. M is a molecular weight ladder. FIG. 19A, 19C lower panels are images of western blots (probing for Halo and actin, respectively) transferred from the same gel as the top image. […] FIGS. 19E-19F are graphs showing quantitation of in-gel Cy5 signal intensity, divided by the western blot signal for Halo.
Cell transfection with the designated plasmid encoding a given HaloTag-Akt fusion gene was carried out following the general procedure described in Example 12. After 20-24 hours, the transfection media were aspirated and replaced with fresh 2 mL rinse MEM medium supplemented with 3% FBS containing the indicated concentration of inhibitor or the equivalent final volume of DMSO and the plates were incubated for the indicated period of time. Cells were then harvested and lysed following the general procedure described in Examples 11 and 13. A portion of the lysate was made up to 25 μL final volume containing, in final concentrations, 5% t-BuOH, [2 mM TCEP, 1% SDS, 1 mM CuSO4, 0.1 mM Cu(TBTA), 10 μM Cy5 azide made up as a 10× stock in water] and 1.0 mg/mL lysate protein. The samples were incubated at 37° C. for 30 min and subsequently quenched with 8 μL of 4×Laemmeli dye containing 6% f ME. After an additional 5-min incubation at 37° C., samples were resolved on a 10% SDS-PAGE gel following the general procedure described in Example 14. After electrophoresis, the gel was rinsed three times with ddH2O and imaged on a Bio-Rad Chemi-doc-MP Imager. Where applicable, the gel was transferred to a PVDF membrane for western blot analysis following the general procedure described in Example 15.

MDA-MB-468 = assay: Cell viability assay (AlamarBlue); details: MDA-MB-468, 72 hours
Experimental: (§1) FIGS. 22A and 22D are graphs showing results of cytotoxicity assays for MDA-MB-468 (FIG. 22A) and BT-549 (FIG. 22D). […] Stated cell lines were plated in 96-well plates (3000 cells per well) in the presence of the stated concentration of inhibitor. After 72 hours, the number of viable cells was analyzed by AlamarBlue®. Proliferation inhibition 50% (PI50) values were calculated by fitting data to “PI50 equation” (EQN 4) (FIG. 22C). MDA cells were transfected with the stated siRNA using lipofectamine 3000 for 12 hours. […] After 72 hours, the number of viable cells was calculated using AlamarBlue®. FIG. 22F is a schematic showing AlamarBlue® viability assay. […] MDA-MB-468 cells were treated with the stated drugs for 72 hours at the PI60 and PI80. After this time, cells were harvested, fixed/permeabilized with ethanol and DNA content was stained using propidium iodide (visualized in the 488-3 channel). RNA was removed simultaneously using RNAse. After 30 min at room temperature, cells were analyzed by flow cytometry.
(§2) Indicated cells were plated in a 96-well plate containing the DMEM complete medium (see Example 11 for complete medium formulation, 100 μL per well) with a density of 3,000-5,000 cells per well for 12 hours followed by the addition of varying concentrations of inhibitors in rinse medium (100 μL). The cells were allowed to grow for 72 hours and 100 μL of the culture medium was removed from each well. This was followed by the addition of 10 μL AlamarBlue® reagent to each well. The fluorescence emission signals at 590 nm were read by Cytation 3 cell imaging multi-mode reader (BioTeK) using an excitation wavelength of 560 nm. Curve fitting and data analysis were performed using Prism software.

BT-549 = assay: Cell viability assay (AlamarBlue); details: BT-549, 72 hours
Experimental: as §1, §2

MDA-MB-468 cells = assay: Cell cycle analysis using flow cytometry
Experimental: MDA-MB-468 cells in a 6-well plate at 10% confluence were treated with HNE alkyne or the indicated drug at PI60 or PI80 concentration for 72 hours at 37° C. Negative control contained the equivalent volume of DMSO. Cells were grown and analyzed in separate batches of 1-2 replicates per condition that were run 2-3 times each. Each time the data points were normalized to the control set for each batch. At the indicated time post compound treatment, the culture medium was aspirated and the adherent cells were detached from the plate using trypsin, quenched with complete media, centrifuged (700 g), washed once with PBS, centrifuged (700 g), resuspended in PBS, then fixed with 70% ethanol for 24 hours. The cell suspensions were spun down at 1,000 g and washed with 500 μl of PBS twice. Each cell pellet was treated with 500 μL staining solution containing 50 μl of Ribonuclease A (≥70 Kunitz units/mg proteins, R6513, Sigma-Aldrich) and 50 μl of a propidium iodide (1 mg/ml, Sigma-Aldrich) solution in PBS with 1% BSA. The resulting solution was incubated with agitation at room temperature for 30 min in the dark.
The stained cells were assayed on a BD LSR II flow cytometer. FlowJo® was used to deconvolute the signals. Cells were grouped first by forward and side scatter (area), then that group was regrouped using forward (width) versus forward (area) scatter to give single cells. Cells were than analyzed using cellular DNA content to quantitate the percentage of cells in the respective phases (G1, S, G2/M and sub-G0) of the cell cycle.

[1] = tested on: Akt1, Akt2, Akt3 isoforms; assay: Akt isoform selectivity of covalent inhibition (in-gel fluorescence, transfected HEK293T cells)
Description: Overexpressed Akt proteins were labeled with Cy5-small-molecule-fluorophore-conjugated azide (Cy5-azide) using standard click chemistry. FIG. 16A top gel is an image showing Cy5 channel (used to evaluate the extent of covalent binding on each Akt protein). The lysate from non-transfected HEK 293T cells was also used for comparison. M, molecular weight ladder. […] FIG. 16B top gel is an image showing Cy5 channel. M is a molecular weight ladder. FIG. 16B bottom is an image showing western blots probing Halo and actin, respectively. […] Error bars designate s.d. […] Normalized fluorescent signal (NFS) was calculated from the following equation: NFS=[(Cy5(X μM drug)−Cy5(No transfection))/Halo(X μM drug)]÷[(Cy5(no drug)−Cy5(No transfection))/Halo(no drug)]. The relative fluorescent signal (RFS) is calculated from the following equation: RFS=(Cy5(X μM drug)/Halo(X μM drug)) (Cy5(no drug)/Halo(no drug))
Cell transfection with the designated plasmid encoding a given HaloTag-Akt fusion gene was carried out following the general procedure described in Example 12. After 20-24 hours, the transfection media were aspirated and replaced with fresh 2 mL rinse MEM medium supplemented with 3% FBS containing the indicated concentration of inhibitor or the equivalent final volume of DMSO and the plates were incubated for the indicated period of time. […]

T1 sequence (Q9Y243 whole entry): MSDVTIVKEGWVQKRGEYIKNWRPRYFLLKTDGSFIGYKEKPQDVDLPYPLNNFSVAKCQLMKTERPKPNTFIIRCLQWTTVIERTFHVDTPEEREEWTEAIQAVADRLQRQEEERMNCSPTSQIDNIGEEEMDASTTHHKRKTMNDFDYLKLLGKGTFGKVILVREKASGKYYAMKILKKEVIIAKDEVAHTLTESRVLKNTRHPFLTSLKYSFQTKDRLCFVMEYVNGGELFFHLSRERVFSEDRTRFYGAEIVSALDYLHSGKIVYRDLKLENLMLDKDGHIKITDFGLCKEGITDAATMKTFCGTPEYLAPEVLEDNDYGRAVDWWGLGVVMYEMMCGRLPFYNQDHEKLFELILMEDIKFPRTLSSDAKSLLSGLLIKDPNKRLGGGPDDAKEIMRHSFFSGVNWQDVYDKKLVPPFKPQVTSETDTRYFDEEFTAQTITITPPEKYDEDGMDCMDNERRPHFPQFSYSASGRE

covalent labeling of Halo-Akt3 (Halo-Akt3): able to elicit covalent labeling
Structure (SMILES): C#CCCCC/C=C/C(=O)NC1(c2ccc(-c3nc4ccn5c(=O)[nH]nc5c4cc3-c3ccccc3)cc2)CCC1 [MK-dHNE, (E)-8-(4-(1-(Non-2-en-8-ynamido)cyclobutyl)phenyl)-3-oxo-9-phenyl-2,3-dihydro-[1,2,4]triazolo[3,4-f][1,6]naphthyridin-7-ium Chloride]
toxicity / potency relative to MK-2206 (MDA-MB-468): less effective than MK-2206 | toxicity / potency relative to MK-2206 (BT-549): less effective than MK-2206

Structure (SMILES): CCCCCC(O)/C=C/C=O (stereo not shown) [HNE, hydroxynonenal]
effect on cell cycle (MDA-MB-468 cells; 72 hours): S-phase arrest; also recorded: loss of G1

covalent labeling of Halo-Akt3 (Halo-Akt3): no covalent labeling was observed
Structure (SMILES): C#CCCCC(O)CCC(=O)NC1(c2ccc(-c3nc4ccn5c(=O)[nH]nc5c4cc3-c3ccccc3)cc2)CCC1.Cl (stereo not shown) [MK-HNA, 8-(4-(1-(4-Hydroxynon-8-ynamido)cyclobutyl)phenyl)-3-oxo-9-phenyl-2,3-dihydro-[1,2,4]triazolo[3,4-f][1,6]naphthyridin-7-ium Chloride]

Structure (SMILES): CCn1c(-c2nonc2N)nc2c(C#CC(C)(C)O)ncc(OC[C@H]3CCCNC3)c21 [GSK-69063]
G1/G0 (percentage of cells in phase) (MDA-MB-468 cells; drug at PI80, 72 hours): 47.7 | G2/M (percentage of cells in phase) (MDA-MB-468 cells; drug at PI80, 72 hours): 30.0 | S (percentage of cells in phase) (MDA-MB-468 cells; drug at PI80, 72 hours): 14.3 | subG0 (percentage of cells in phase) (MDA-MB-468 cells; drug at PI80, 72 hours): 0.92

Structure (SMILES): C#CCCCCC(O)C(=C)C(=O)NC1(c2ccc(-c3nc4ccn5c(=O)[nH]nc5c4cc3-c3ccccc3)cc2)CCC1.Cl (stereo not shown) [MK-G, 8-(4-(1-(3-Hydroxy-2-methylenenon-8-ynamido)cyclobutyl)phenyl)-3-oxo-9-phenyl-2,3-dihydro-[1,2,4]triazolo[3,4-f][1,6]naphthyridin-7-ium Chloride]
Akt isozyme selectivity of inhibition [1]: no isozyme-selective inhibition

Structure (SMILES): C#CCCCC(O)C=CC=O (stereo not shown) [HNE alkyne]
G1/G0 (percentage of cells in phase) (MDA-MB-468 cells; drug at PI60, 72 hours): 40.0 | G2/M (percentage of cells in phase) (MDA-MB-468 cells; drug at PI60, 72 hours): 30.8 | S (percentage of cells in phase) (MDA-MB-468 cells; drug at PI60, 72 hours): 26.3 | subG0 (percentage of cells in phase) (MDA-MB-468 cells; drug at PI60, 72 hours): 3.7 | G1/G0 (percentage of cells in phase) (MDA-MB-468 cells; drug at PI80, 72 hours): 28.5 | G2/M (percentage of cells in phase) (MDA-MB-468 cells; drug at PI80, 72 hours): 22 | S (percentage of cells in phase) (MDA-MB-468 cells; drug at PI80, 72 hours): 31.3 | subG0 (percentage of cells in phase) (MDA-MB-468 cells; drug at PI80, 72 hours): 18.2

Structure (SMILES): CC(C)NC[C@@H](C(=O)N1CCN(c2ncnc3c2[C@H](C)C[C@H]3O)CC1)c1ccc(Cl)cc1 [GDC-0068]
G1/G0 (percentage of cells in phase) (MDA-MB-468 cells; drug at PI60, 72 hours): 52.6 | G2/M (percentage of cells in phase) (MDA-MB-468 cells; drug at PI60, 72 hours): 28.3 | S (percentage of cells in phase) (MDA-MB-468 cells; drug at PI60, 72 hours): 12.1 | subG0 (percentage of cells in phase) (MDA-MB-468 cells; drug at PI60, 72 hours): 1.64
